Laboratory results: PubChem BioAssay AID1159588 (Gregory J. Crowther, 2016)

molecular target: Calcium-dependent protein kinase 4 (Plasmodium falciparum (isolate 3D7)) (UniProt Q8IBS5); assay: PfCDPK4 kinase inhibitors, biochemical, TCAMS library (AID 1159588); conditions: recombinant PfCDPK4, Kinase-Glo ATP depletion luminescence
Sequence (Q8IBS5 whole entry, looked up): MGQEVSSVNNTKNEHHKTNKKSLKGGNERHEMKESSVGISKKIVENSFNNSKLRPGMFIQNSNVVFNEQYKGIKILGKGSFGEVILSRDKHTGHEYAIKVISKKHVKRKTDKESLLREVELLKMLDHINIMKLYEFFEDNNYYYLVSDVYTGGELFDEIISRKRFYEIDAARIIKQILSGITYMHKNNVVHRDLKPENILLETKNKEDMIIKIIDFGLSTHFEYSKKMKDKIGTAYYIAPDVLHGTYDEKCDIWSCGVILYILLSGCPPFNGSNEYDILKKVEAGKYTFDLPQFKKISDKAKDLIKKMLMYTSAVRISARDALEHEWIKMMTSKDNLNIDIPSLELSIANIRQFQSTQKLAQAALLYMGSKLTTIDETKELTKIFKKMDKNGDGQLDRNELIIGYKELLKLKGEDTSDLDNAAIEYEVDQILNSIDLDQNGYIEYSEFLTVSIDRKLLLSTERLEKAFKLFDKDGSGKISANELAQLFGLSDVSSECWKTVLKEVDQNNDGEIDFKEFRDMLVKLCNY

Point of comparison: `CCN(CC)CCCOc1ccc(Nc2nccc(-c3c(-c4cccc(NC(=O)c5c(F)cccc5F)c4)nn4ccccc34)n2)cc1F`, IC50 0.086 µM. Against it:
- CCn1c(-c2nonc2N)nc2c(-c3cccc(NC(=O)Nc4ccccc4Cl)c3)ncc(OCCCN)c21 — 1.6-fold higher, 0.138 µM
- N#Cc1ccc(C(=O)Nc2cc(-c3cccc(O)c3)cc3[nH]ncc23)cc1 — 5.6-fold higher, 0.478 µM
- CCn1c(-c2nonc2N)nc2c(-c3cccc(Cl)c3)ncc(OCCCNCCc3cnc[nH]3)c21 — 1.9-fold lower, 0.046 µM
- COc1cc(Nc2nccc(-c3c(-c4cccc(NC(=O)c5c(F)cccc5F)c4)nn4ccccc34)n2)cc(OC)c1OC — within 1.5-fold, 0.077 µM
- Cc1cccc(Nc2nc(NCCCCN)nc3cc[nH]c(=O)c23)c1 — 1.9-fold higher, 0.166 µM
- CCS(=O)(=O)c1ccc(OC)c(Nc2nccc(-c3c(-c4cccc(NC(=O)c5c(F)cccc5F)c4)nn4ncccc34)n2)c1 — 2.3-fold higher, 0.201 µM
- NS(=O)(=O)c1cccc(Nc2nc(N[C@@H]3CCNC3)nc3cc[nH]c(=O)c23)c1 — 1.6-fold higher, 0.135 µM
- CNC(=O)c1ccccc1Nc1nc(Nc2ccc(CCN3CCN(C)CC3)cc2)ncc1Cl — 4.2-fold higher, 0.361 µM
- CCn1c(-c2nonc2N)nc2c(-c3cccc(Cl)c3)ncc(OCCCNCc3cnc(C)nc3N)c21 — 1.7-fold higher, 0.145 µM
- O=C(Nc1cccc(-c2nn3ncccc3c2-c2ccnc(Nc3cccc(-c4cnco4)c3)n2)c1)c1c(F)cccc1F — 1.7-fold higher, 0.145 µM
- CS(=O)(=O)Cc1ccc(Nc2nccc(-c3c(-c4cccc(NC(=O)C5CCCCC5)c4)nn4ncccc34)n2)cc1 — within 1.5-fold, 0.067 µM
- NS(=O)(=O)c1cccc(N=Cc2c(O)[nH]c3ccc(S(=O)(=O)Cc4c(Cl)cccc4Cl)cc23)c1 — within 1.5-fold, 0.116 µM
- NS(=O)(=O)c1cccc(Nc2nccc(-c3c(-c4cccc(NC(=O)c5c(F)cccc5F)c4)nn4ccccc34)n2)c1 — 1.7-fold lower, 0.051 µM
- COCCOc1ccc(Nc2nccc(-c3c(-c4cccc(NC(=O)c5c(F)cccc5F)c4)nn4ccccc34)n2)cc1Cl — 9.9-fold higher, 0.853 µM
- CCn1c(-c2nonc2N)nc2c(-c3cccc(NC(=O)Nc4ccc(C(F)(F)F)cc4)c3)ncc(OCCCN)c21 — 2.9-fold lower, 0.03 µM
- CC(c1cccc(Nc2nccc(-c3c(-c4cccc(NC(=O)c5c(F)cccc5F)c4)nn4ccccc34)n2)c1)S(C)(=O)=O (stereo not given) — within 1.5-fold, 0.09 µM
- CCN(CC)CCNC(=O)c1ccc(N=Cc2c(O)[nH]c3ccc(S(=O)(=O)Cc4c(Cl)cccc4Cl)cc23)cc1 — within 1.5-fold, 0.073 µM
- CCn1c(-c2nonc2N)nc2c(-c3ccccc3)ncc(OCCCNCCCN3CCOCC3)c21 — 2.3-fold lower, 0.038 µM
- CCn1c(-c2nonc2N)nc2c(-c3cccc(NC(=O)Nc4cccc(Cl)c4)c3)ncc(OCCCN)c21 — within 1.5-fold, 0.081 µM
- O=C(NCC(c1ccc(C(F)(F)F)cc1)N1CCCC1)c1cc(-c2ccncc2)c(-c2cccc(O)c2)o1 (stereo not given) — 2.1-fold higher, 0.178 µM
- O=C(Nc1cccc(-c2nn3ccccc3c2-c2ccnc(Nc3ccc(C(=O)N4CCOCC4)cc3)n2)c1)c1c(F)cccc1F — 3.6-fold higher, 0.311 µM
- CCn1c(-c2nonc2N)nc2c(-c3cccc(NC(=O)Nc4ccc5c(c4)CCC5)c3)ncc(OCCCN)c21 — within 1.5-fold, 0.059 µM
- Cn1cccc1C(=O)Nc1cccc(-c2nn3ccccc3c2-c2ccnc(Nc3ccc4c(c3)OCCO4)n2)c1 — 2.2-fold higher, 0.191 µM
- CCn1c(-c2nonc2N)nc2c(-c3cc4ccccc4s3)ncc(C(=O)N3CCC(N)C3)c21 (stereo not given) — within 1.5-fold, 0.089 µM
- NCCCNc1nc(Nc2cccc(C(N)=O)c2)c2c(=O)[nH]ccc2n1 — 11-fold higher, 0.967 µM
- CCn1c(-c2nonc2N)nc2c(-c3cccc(NC(=O)Nc4cccc(C#N)c4)c3)ncc(OCCCN)c21 — 2-fold higher, 0.17 µM
- Cc1cccc(Nc2nc(N[C@@H]3CCCNC3)nc3cc[nH]c(=O)c23)c1 — within 1.5-fold, 0.076 µM
- CCn1c(-c2nonc2N)nc2c(-c3cccc(NC(=O)Nc4ccccc4OC)c3)ncc(OCCCN)c21 — 8.2-fold higher, 0.706 µM
- CN1CCN(c2ccc(Nc3ncc(C#N)c(Nc4ccccc4C(N)=O)n3)cc2)CC1 — 2.2-fold higher, 0.188 µM
- O=C(Nc1c(F)cccc1F)c1cccc(-c2nn3ccccc3c2-c2ccnc(Nc3cccc(-c4cnco4)c3)n2)c1 — 1.6-fold higher, 0.134 µM
- NS(=O)(=O)CCc1cccc(Nc2nccc(-c3c(-c4cccc(NC(=O)c5c(F)cccc5F)c4)nn4ccccc34)n2)c1 — 3-fold lower, 0.029 µM
- CC(c1cccc(Nc2nccc(-c3c(-c4cccc(NC(=O)c5c(F)cccc5F)c4)nn4ncccc34)n2)c1)S(C)(=O)=O (stereo not given) — 3.6-fold lower, 0.024 µM
- NCC(NC(=O)c1ccc(-c2c[nH]c3ncccc23)s1)c1ccccc1 (stereo not given) — 5.5-fold higher, 0.473 µM
- Cc1csc(-c2ncc(OC[C@@H](N)Cc3ccccc3)cc2-c2ccc3n[nH]c(C)c3c2)c1 — 4.9-fold higher, 0.42 µM
- NC[C@H](CC1CCCCC1)NC(=O)c1ccc(-c2ccnc3[nH]ccc23)s1 — 6.1-fold higher, 0.527 µM
- Cc1cc(Nc2ncc(C#N)c(Nc3ccccc3C(N)=O)n2)ccc1N1CCN(C)CC1 — within 1.5-fold, 0.089 µM
- CN1CCN(c2ccc(Nc3nccc(-c4c(-c5cccc(NC(=O)c6c(F)cccc6F)c5)nn5ccccc45)n3)cc2)CC1 — within 1.5-fold, 0.075 µM
- O=c1[nH]ccc2nc(N[C@@H]3CCNC3)nc(Nc3cc(Cl)cc(Cl)c3)c12 — 5.2-fold higher, 0.446 µM
- COc1cc(Nc2nccc(-c3c(-c4cccc(NC(=O)c5c(F)cccc5F)c4)nn4ncccc34)n2)cc(OC)c1OC — 1.9-fold lower, 0.045 µM
- CCn1c(-c2nonc2N)nc2c(-c3cccc(NC(=O)NC45CC6CC(CC(C6)C4)C5)c3)ncc(OCCCN)c21 — 1.8-fold higher, 0.158 µM
- Cc1[nH]nc2ccc(-c3cc(OC[C@@H](N)Cc4ccccc4)cnc3-c3cc4ccccc4s3)cc12 — 6.5-fold higher, 0.563 µM
- Cc1[nH]c(/C=C2\C(=O)Nc3ccc(S(=O)(=O)Cc4c(Cl)cccc4Cl)cc32)c(C)c1C(=O)N1CCC[C@@H]1CN1CCCC1 — 4.1-fold lower, 0.021 µM
- O=C(Nc1cccc(-c2nn3ncccc3c2-c2ccnc(Nc3ccccc3)n2)c1)c1c(F)cccc1F — 4.1-fold higher, 0.352 µM
- O=C(Nc1cccc(-c2nn3ccccc3c2-c2ccnc(Nc3cccc(-c4cnco4)c3)n2)c1)C1CCCCC1 — 7.1-fold higher, 0.612 µM
- CC(C)(CN)c1cc(-c2ccc(Cl)c(O)c2)c(-c2ccncc2)o1 — 5-fold higher, 0.433 µM
- O=C(Nc1ccccc1)Nc1cccc(-c2nn3c(OCCN4CCCC4)cccc3c2-c2ccncc2)c1 — 9-fold higher, 0.775 µM
- CS(=O)(=O)Cc1ccc(Nc2nccc(-c3c(-c4cccc(NC(=O)c5c(F)cccc5F)c4)nn4ccccc34)n2)cc1 — 1.7-fold lower, 0.052 µM
- CC(=O)Nc1cccc(Nc2nccc(-c3c(-c4cccc(NC(=O)c5c(F)cccc5F)c4)nn4ncccc34)n2)c1 — 3.3-fold lower, 0.026 µM
- CS(=O)(=O)Cc1ccc(Nc2nccc(-c3c(-c4cccc(C(=O)Nc5c(F)cccc5F)c4)nn4ccccc34)n2)cc1 — within 1.5-fold, 0.065 µM
- CCn1c(-c2nonc2N)nc2c(-c3ccccc3)ncc(OCCCCNCCc3ncc[nH]3)c21 — 2-fold lower, 0.043 µM
- O=C(Nc1cccc(-c2nn3ccccc3c2-c2ccnc(Nc3ccc(-c4ccn[nH]4)cc3)n2)c1)c1c(F)cccc1F — 3.6-fold higher, 0.307 µM
- CCn1c(-c2nonc2N)nc2c(-c3cccc(NC(=O)Nc4cccc(C(F)(F)F)c4)c3)ncc(OCCCN)c21 — 4-fold higher, 0.342 µM
- O=C(Nc1cccc(-c2nn3ccccc3c2-c2ccnc(Nc3ccc(NCCCN4CCOCC4)c(F)c3)n2)c1)c1c(F)cccc1F — 3.7-fold higher, 0.315 µM
- CCn1c(-c2nonc2N)nc2c(-c3cccc(NC(=O)Nc4ccc(C#N)cc4)c3)ncc(OCCCN)c21 — within 1.5-fold, 0.084 µM
